ChEMBL document CHEMBL1121904, “Potential antitumor agents. 35. Quantitative relationships between antitumor (L1210) potency and DNA binding for 4'-(9-acridinylamino)methanesulfon-m-anisidide analogues” (J Med Chem, 1981)

How the values were obtained:
Calf thymus DNA = conditions: Bos taurus
Description: Association constant measured for binding towards poly[d(A-T)] of DNA in calf thymus

Description for physchem: Ionisation constant (pKa)

SMILES	Log K (Calf thymus DNA)	pKa (physchem)
COc1cc(NS(C)(=O)=O)ccc1Nc1c2ccccc2nc2cc(Cl)ccc12	6.06	6.84
COc1cc(NS(C)(=O)=O)ccc1Nc1c2ccccc2nc2cc(C)ccc12	5.95	7.7
COc1cc(NS(C)(=O)=O)ccc1Nc1c2ccccc2nc2cc(C(C)C)ccc12	5.46	7.66
CCc1ccc2c(Nc3ccc(NS(C)(=O)=O)cc3OC)c3ccccc3nc2c1	5.66	7.65
COc1cc(NS(C)(=O)=O)ccc1Nc1c2ccccc2nc2cc(C(F)(F)F)ccc12	5.24	6.24
COC(=O)Nc1ccc2c(Nc3ccc(NS(C)(=O)=O)cc3OC)c3ccccc3nc2c1	6.37	7.77
COc1cc(NS(C)(=O)=O)ccc1Nc1c2ccccc2nc2ccc(C)cc12	5.35	7.45
COc1cc(NS(C)(=O)=O)ccc1Nc1c2ccccc2nc2cc(C#N)ccc12	5.65	5.94
COc1cc(NS(C)(=O)=O)ccc1Nc1c2ccccc2nc2c(-c3ccccc3)cccc12	5.6	7.02
COc1cc(NS(C)(=O)=O)ccc1Nc1c2ccccc2nc2ccc(F)cc12	5.28	6.71
COc1cc(NS(C)(=O)=O)ccc1Nc1c2ccccc2nc2ccc(N)cc12	5.95	7.37
COc1cc(NS(C)(=O)=O)ccc1Nc1c2ccccc2nc2cc([N+](=O)[O-])ccc12	5.65	–
COc1ccc2c(Nc3ccc(NS(C)(=O)=O)cc3OC)c3ccccc3nc2c1	5.83	7.81
COc1cc(NS(C)(=O)=O)ccc1Nc1c2ccccc2nc2cc(NC(C)=O)ccc12	6.24	–
COc1cc(NS(C)(=O)=O)ccc1Nc1c2ccccc2nc2cnccc12	5.09	5.53
COc1cc(NS(C)(=O)=O)ccc1Nc1c2ccccc2nc2cc(Br)ccc12	6.29	6.84
COc1cc(NS(C)(=O)=O)ccc1Nc1c2ccccc2nc2cc(C(N)=O)ccc12	5.66	6.66
COc1cc(NS(C)(=O)=O)ccc1Nc1c2ccccc2nc2ncccc12	5.27	–
CNc1ccc2c(Nc3ccc(NS(C)(=O)=O)cc3OC)c3ccccc3nc2c1	6.17	10.1
COc1cc(NS(C)(=O)=O)ccc1Nc1c2ccccc2nc2cc(I)ccc12	6.35	6.77
COc1cc(NS(C)(=O)=O)ccc1Nc1c2ccccc2nc2ccc(I)cc12	5.7	6.6
COc1cc(NS(C)(=O)=O)ccc1Nc1c2ccccc2nc2cc(F)ccc12	5.54	7.05
COc1cc(NS(C)(=O)=O)ccc1Nc1c2ccccc2nc2cc(N)ccc12	6.21	9.92
COc1cc(NS(C)(=O)=O)ccc1Nc1c2ccccc2nc2ccc(C(C)C)cc12	5.39	7.4

The remaining lines, values ahead:

Log K (Calf thymus DNA)	pKa (physchem)	SMILES
5.54	–	CNC(=O)c1cccc2c(Nc3ccc(NS(C)(=O)=O)cc3OC)c3ccccc3nc12
5.76	6.11	COc1cc(NS(C)(=O)=O)ccc1Nc1c2ccccc2nc2c(Cl)cccc12
5.01	4.87	COc1cc(NS(C)(=O)=O)ccc1Nc1c2ccccc2nc2c(C#N)cccc12
4.96	6.03	COc1cc(NS(C)(=O)=O)ccc1Nc1c2ccccc2nc2c(C(=O)N3CCOCC3)cccc12
5.4	–	CCCCNC(=O)c1cccc2c(Nc3ccc(NS(C)(=O)=O)cc3OC)c3ccccc3nc12
5.26	–	COc1cc(NS(C)(=O)=O)ccc1Nc1c2ccccc2nc2c(C(=O)NCC(O)CO)cccc12 (stereo not given)
5.77	7.37	CCOc1cccc2c(Nc3ccc(NS(C)(=O)=O)cc3OC)c3ccccc3nc12
5.65	6.33	COc1cc(NS(C)(=O)=O)ccc1Nc1c2ccccc2nc2c(F)cccc12
5.04	–	COc1cc(NS(C)(=O)=O)ccc1Nc1c2ccccc2nc2c(C(=O)N(C)C)cccc12
5.65	7.15	C=NC(=O)CCc1cccc2c(Nc3ccc(NS(C)(=O)=O)cc3OC)c3ccccc3nc12
5.8	7.35	CNC(=O)COc1cccc2c(Nc3ccc(NS(C)(=O)=O)cc3OC)c3ccccc3nc12
5.9	7.3	COc1cc(NS(C)(=O)=O)ccc1Nc1c2ccccc2nc2c(OCC(O)CO)cccc12 (stereo not given)
5.4	6.3	COc1cc(NS(C)(=O)=O)ccc1Nc1c2ccccc2nc2c(C(=O)NCCCO)cccc12
6.03	7.39	COc1cc(NS(C)(=O)=O)ccc1Nc1c2ccccc2nc2c(C)cccc12
5.57	6.09	COc1cc(NS(C)(=O)=O)ccc1Nc1c2ccccc2nc2c(Br)cccc12
5.39	–	COc1cc(NS(C)(=O)=O)ccc1Nc1c2ccccc2nc2c(C(=O)NCC(N)=O)cccc12
5.42	6.27	COc1cc(NS(C)(=O)=O)ccc1Nc1c2ccccc2nc2c(C(=O)NCCO)cccc12
5.74	7.36	COc1cc(NS(C)(=O)=O)ccc1Nc1c2ccccc2nc2c(OCCO)cccc12
5.94	7.39	COc1cc(NS(C)(=O)=O)ccc1Nc1c2ccccc2nc2c(OC)cccc12
5.74	7.36	COc1cc(NS(C)(=O)=O)ccc1Nc1c2ccccc2nc2c(OCCCC(N)=O)cccc12
5.47	–	COc1cc(NS(C)(=O)=O)ccc1Nc1c2ccccc2nc2c(C(N)=O)cccc12
5.34	6.2	COc1cc(NS(C)(=O)=O)ccc1Nc1c2ccccc2nc2c(C(=O)NCC(C)O)cccc12 (stereo not given)
5.2	5.05	COc1cc(NS(C)(=O)=O)ccc1Nc1c2ccccc2nc2c([N+](=O)[O-])cccc12
